Laboratory results: patent US20030100757A1, “2-(4-aryl or heteroaryl-piperazin-1-ylmethyl)-1H-indole derivatives interacting with the dopamine D4 receptor” (Pfizer Inc., priority 2001, published 2003)

First: O=[N+]([O-])c1ccccc1N1CCN(Cc2cc3ccccc3[nH]2)CC1 [Example 12, 2-[4-(2-Nitro-phenyl)-piperazin-1-ylmethyl]-1H-indole]
Second: O=[N+]([O-])c1ccccc1N1CCN(Cc2cc3cc(F)ccc3[nH]2)CC1 [Example 13, 5-Fluoro-2-[4-(2-nitro-phenyl)-piperazin-1-ylmethyl]-1H-indole]
The melting point of the first is lower: 210 to 211 °C for the first, 236 °C for the second.

First: Fc1ccc2[nH]c(CN3CCN(c4cccc5ccccc45)CC3)cc2c1 [Example 14, 5-Fluoro-2-(4-naphthalen-1-yl-piperazin-1-ylmethyl)-1H-indole]
Second: c1ccc2[nH]c(CN3CCN(c4cccc5ccccc45)CC3)cc2c1 [Example 11, 2-(4-Naphthalen-1-yl-piperazin-1-ylmethyl)-1H-indole]
The melting point of the first is higher: 249 to 250 °C for the first, 238 to 239 °C for the second.

First: O=C(c1cc2cc(F)ccc2[nH]1)N1CCN(c2ccccc2[N+](=O)[O-])CC1 [Example 7, (5-Fluoro-1H-indol-2-yl)-[4-(2-nitro-phenyl)-piperazin-1-yl]-methanone]
Second: O=C(c1cc2cc(F)ccc2[nH]1)N1CCN(c2ccccn2)CC1 [Example 18, (5-Fluoro-1H-indol-2-yl)-(4-pyridin-2-yl-piperazin-1-yl)-methanone]
The melting point of the first is lower: 184 to 188 °C for the first, 214 to 218 °C for the second.

First: Fc1ccc2[nH]c(CN3CCN(c4cccc(C(F)(F)F)c4)CC3)cc2c1 [Example 10, 5-Fluoro-2-[4-(3-trifluoromethyl-phenyl)-piperazin-1-ylmethyl]-1H-indole]
Second: Oc1ccc2[nH]c(CN3CCN(c4cccc(C(F)(F)F)c4)CC3)cc2c1 [Example 4, 2-[4-(3-Trifluoromethyl-phenyl)-piperazin-1-ylmethyl]-1H-indol-5-ol]
The melting point of the first is higher: 196 to 197 °C for the first, 188 to 190 °C for the second.

First: Fc1ccc2[nH]c(CN3CCN(c4ncccn4)CC3)cc2c1 [Example 17, 5-Fluoro-2-(4-pyrimidin-2-yl-piperazin-1-ylmethyl)-1H-indole]
Second: c1ccc2[nH]c(CN3CCN(c4nsc5ccccc45)CC3)cc2c1 [Example 9, 3-[4-(1H-Indol-2-ylmethyl)-piperazin-1-yl]-benzo[d]isothiazole]
The melting point of the first is higher: 199 °C for the first, 150 to 152 °C for the second.

First: O=C(c1cc2cc(F)ccc2[nH]1)N1CCN(c2cccc(C(F)(F)F)c2)CC1 [Example 8, (5-Fluoro-1H-indol-2-yl)-[4-(3-trifluoromethyl-phenyl)-piperazin-1-yl]-methanone]
Second: FC(F)(F)c1cccc(N2CCN(Cc3cc4ccccc4[nH]3)CC2)c1 [Example 5, 2-[4-(3-Trifluoromethyl-phenyl)-piperazin-1-ylmethyl]-1 H-indole]
The melting point of the first is higher: 198 °C for the first, 192 to 194 °C for the second.
